Usually IC50 stands for the concentration that gives 50% inhibition.

Counter-ions that a name gives are not always drawn.

This test concerns the target T1, recombinant IRAK-4 kinase (Homo sapiens, UniProt Q9NWZ3).
T1 construct: purchased Millipore, USA
T1 sequence (Q9NWZ3 1-460): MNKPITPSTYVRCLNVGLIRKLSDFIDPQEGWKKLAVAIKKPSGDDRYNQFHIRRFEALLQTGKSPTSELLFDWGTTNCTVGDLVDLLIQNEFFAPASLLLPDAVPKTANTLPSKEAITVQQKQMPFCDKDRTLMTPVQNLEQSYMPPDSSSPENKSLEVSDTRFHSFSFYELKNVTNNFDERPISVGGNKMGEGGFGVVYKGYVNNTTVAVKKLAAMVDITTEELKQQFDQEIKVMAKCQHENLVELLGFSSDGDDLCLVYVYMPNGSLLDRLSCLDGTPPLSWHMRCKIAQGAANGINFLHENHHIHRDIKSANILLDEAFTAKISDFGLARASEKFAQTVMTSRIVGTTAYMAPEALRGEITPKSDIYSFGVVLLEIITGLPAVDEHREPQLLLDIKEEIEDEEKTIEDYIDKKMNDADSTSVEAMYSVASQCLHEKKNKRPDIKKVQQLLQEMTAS
In words: IRAK-4 Biochemical Assay (TR-FRET). The following applies: 30 min pre-incubation, 100 nM Biotin Histone H3, 20 μM ATP, read-out: IC50 values for IRAK4 activity.
`Cc1cc(-c2nc(C(=O)Nc3cc4cnn(C)c4cc3N3CCC(CO)CC3)co2)ccn1` [Example 89, N-(6-(4-(hydroxymethyl)piperidin-1-yl)-1-methyl-1H-indazol-5-yl)-2-(2-methylpyridin-4-yl)oxazole-4-carboxamide]: the IC50 was less than 50 nM.

As for `Cn1cc2cc(NC(=O)c3coc(-c4ccnc(N)c4)n3)c(N3CCC(F)CC3)cc2n1` [Example 90, 2-(2-aminopyridin-4-yl)-N-(6-(4-fluoropiperidin-1-yl)-2-methyl-2H-indazol-5-yl)oxazole-4-carboxamide hydrochloride], the half-maximal inhibitory concentration (IC50) is less than 50 nM.

Consider `Cc1cc(-c2nc(C(=O)Nc3cc4cn(C)nc4cc3N3CCC(F)CC3)co2)ccn1` [Example 91, N-(6-(4-fluoropiperidin-1-yl)-2-methyl-2H-indazol-5-yl)-2-(2-methylpyridin-4-yl)oxazole-4-carboxamide hydrochloride], for which the IC50 was less than 50 nM.

Regarding `C[C@H](O)Cn1cc(-c2cccc(C(=O)Nc3cc4cn(C)nc4cc3N3CCC(CO)CC3)n2)cn1` [Example 92, (S)—N-(6-(4-(hydroxymethyl)piperidin-1-yl)-2-methyl-2H-indazol-5-yl)-6-(1-(2-hydroxypropyl)-1H-pyrazol-4-yl)picolinamide], the half-maximal inhibitory concentration (IC50) was less than 50 nM.

For the compound `Cn1cc2cc(NC(=O)c3coc(-c4ccnc(N)c4)n3)c(N3CCC(O)CC3)cc2n1` [Example 93, 2-(2-aminopyridin-4-yl)-N-(6-(4-hydroxypiperidin-1-yl)-2-methyl-2H-indazol-5-yl)oxazole-4-carboxamide hydrochloride], the IC50 was less than 50 nM.

With `COCCn1ncc2cc(NC(=O)c3coc(-c4ccnc(C)c4)n3)c(N3CCC(CO)CC3)cc21` [Example 94, N-(6-(4-(hydroxymethyl)piperidin-1-yl)-1-(2-methoxyethyl)-1H-indazol-5-yl)-2-(2-methylpyridin-4-yl)oxazole-4-carboxamide], the IC50 was less than 50 nM.

As to `C[C@H](O)Cn1cc(-c2cccc(C(=O)Nc3cc4cnn(C)c4cc3N3CCC(CO)CC3)n2)cn1` [Example 95, (S)—N-(6-(4-(hydroxymethyl)piperidin-1-yl)-1-methyl-1H-indazol-5-yl)-6-(1-(2-hydroxypropyl)-1H-pyrazol-4-yl)picolinamide], the IC50 was more than 100 nM.

Regarding `COCCn1cc2cc(NC(=O)c3coc(-c4ccnc(C)c4)n3)c(N3CCC(CO)CC3)cc2n1` [Example 96, N-(6-(4-(hydroxymethyl)piperidin-1-yl)-2-(2-methoxyethyl)-2H-indazol-5-yl)-2-(2-methylpyridin-4-yl)oxazole-4-carboxamide], the 50% inhibitory concentration (IC50) is less than 50 nM.

On to `COc1cc(-c2nc(C(=O)Nc3cc4cn(C)nc4cc3N3CCC(CO)CC3)co2)ccn1` [Example 97, N-(6-(4-(hydroxymethyl)piperidin-1-yl)-2-methyl-2H-indazol-5-yl)-2-(2-methoxypyridin-4-yl)oxazole-4-carboxamide], for which the IC50 is less than 50 nM.

Take `CC(=O)Nc1cc(-c2nc(C(=O)Nc3cc4cn(C)nc4cc3N3CCC(CO)CC3)co2)ccn1` [Example 98, 2-(2-acetamidopyridin-4-yl)-N-(6-(4-(hydroxymethyl)piperidin-1-yl)-2-methyl-2H-indazol-5-yl)oxazole-4-carboxamide]: the 50% inhibitory concentration (IC50) is less than 50 nM.

Turning to `Cn1ncc2cc(NC(=O)c3coc(-c4ccnc(N)c4)n3)c(N3CCC(CO)CC3)cc21` [Example 99, 2-(2-aminopyridin-4-yl)-N-(6-(4-(hydroxymethyl)piperidin-1-yl)-1-methyl-1H-indazol-5-yl)oxazole-4-carboxamide hydrochloride], the IC50 is less than 50 nM.

With `Cn1cc2cc(NC(=O)c3coc(-c4ccnc(N)c4)n3)c(N3CCC(CO)CC3)cc2n1` [Example 100, 2-(2-aminopyridin-4-yl)-N-(6-(4-(hydroxymethyl)piperidin-1-yl)-2-methyl-2H-indazol-5-yl)oxazole-4-carboxamide hydrochloride], the IC50 was less than 50 nM.

As to `COc1cc(-c2nc(C(=O)Nc3cc4cnn(C)c4cc3N3CCC(O)CC3)co2)ccn1` [Example 101, N-(6-(4-hydroxypiperidin-1-yl)-1-methyl-1H-indazol-5-yl)-2-(2-methoxypyridin-4-yl)oxazole-4-carboxamide], the IC50 is less than 50 nM.

As for `Cn1cc2cc(NC(=O)c3coc(-c4ccnc(N)c4)n3)c(N3CCCC(O)C3)cc2n1` (centres unmarked) [Example 102, 2-(2-aminopyridin-4-yl)-N-(6-(3-hydroxypiperidin-1-yl)-2-methyl-2H-indazol-5-yl)oxazole-4-carboxamide hydrochloride], the IC50 is less than 50 nM.

As for `COc1cc(-c2nc(C(=O)Nc3cc4cn(C)nc4cc3N3CCCCC3)co2)ccn1` [Example 103, 2-(2-methoxypyridin-4-yl)-N-(2-methyl-6-(piperidin-1-yl)-2H-indazol-5-yl)oxazole-4-carboxamide], the half-inhibitory concentration (IC50) is less than 50 nM.

Turning to `Cn1cc2cc(NC(=O)c3coc(-c4ccnc(N)c4)n3)c(N3CCCC(F)C3)cc2n1` (centres unmarked) [Example 104, 2-(2-aminopyridin-4-yl)-N-(6-(3-fluoropiperidin-1-yl)-2-methyl-2H-indazol-5-yl)oxazole-4-carboxamide hydrochloride], the half-inhibitory concentration (IC50) is less than 50 nM.

Regarding `Cn1cc2cc(NC(=O)c3coc(-c4ccnc(N)c4)n3)c(N3CC[C@@H](O)C3)cc2n1` [Example 105, (R)-2-(2-aminopyridin-4-yl)-N-(6-(3-hydroxypyrrolidin-1-yl)-2-methyl-2H-indazol-5-yl)oxazole-4-carboxamide hydrochloride], the IC50 is less than 50 nM.

As for `COCC(=O)OC1CCN(c2cc3c(cc2NC(=O)c2coc(-c4ccnc(C)c4)n2)c(C)nn3C)CC1` [Example 106, 1-(1,3-dimethyl-5-(2-(2-methylpyridin-4-yl)oxazole-4-carboxamido)-1H-indazol-6-yl)piperidin-4-yl 2-methoxyacetate], the IC50 is less than 50 nM.

For `COc1cc(-c2nc(C(=O)Nc3cc4cn(C)nc4cc3N3CCC(O)CC3)co2)ccn1` [Example 107, N-(6-(4-hydroxypiperidin-1-yl)-2-methyl-2H-indazol-5-yl)-2-(2-methoxypyridin-4-yl)oxazole-4-carboxamide hydrochloride], the concentration for half-maximal inhibition (IC50) was less than 50 nM.

As to `COCCn1ncc2cc(NC(=O)c3coc(-c4ccnc(C)c4)n3)c(N3CCC(N)CC3)cc21` [Example 108, N-(6-(4-aminopiperidin-1-yl)-1-(2-methoxyethyl)-1H-indazol-5-yl)-2-(2-methylpyridin-4-yl)oxazole-4-carboxamide hydrochloride], the half-inhibitory concentration (IC50) is less than 50 nM.

Regarding `Cc1cc(-c2nc(C(=O)Nc3cc4cn(C)nc4cc3N3CCC(N)CC3)co2)ccn1` [Example 109, N-(6-(4-aminopiperidin-1-yl)-2-methyl-2H-indazol-5-yl)-2-(2-methylpyridin-4-yl)oxazole-4-carboxamide hydrochloride], the concentration for half-maximal inhibition (IC50) was less than 50 nM.

In the case of `COCCn1nc(C)c2cc(NC(=O)c3coc(-c4ccnc(C)c4)n3)c(N3CCC(CO)CC3)cc21` [Example 110, N-(6-(4-(hydroxymethyl)piperidin-1-yl)-1-(2-methoxyethyl)-3-methyl-1H-indazol-5-yl)-2-(2-methylpyridin-4-yl)oxazole-4-carboxamide], the IC50 is less than 50 nM.

In the case of `Cc1cc(-c2nc(C(=O)Nc3cc4c(C)nn(C)c4cc3N3CCC(CO)CC3)co2)ccn1` [Example 111, N-(6-(4-(hydroxymethyl)piperidin-1-yl)-1,3-dimethyl-1H-indazol-5-yl)-2-(2-methylpyridin-4-yl)oxazole-4-carboxamide], the IC50 was less than 50 nM.

These data come from US10160753B2, “Indazole compounds as IRAK4 inhibitors” (Aurigene Discovery Technologies Limited, priority 2014, dated 2018).
